# According to paper PMC11396129, “Oxindole–benzothiazole hybrids as CDK2 inhibitors and anticancer agents: design, synthesis and biological evaluation” (BMC Chemistry, 2024):
# How the values were obtained:
# [1] = system: A549/ATCC; experiment: NCI 60 panel growth inhibition (SRB), non-small cell lung cancer; type: cell-based, human; settings: 10 μM
# Procedure: (§1) Screening of cytotoxic activity against a panel of sixty human tumor cell lines The selected compounds by NCI were evaluated for their anticancer activity in a two- stage process. […] Then, the output from the single dose screen is reported as a mean graph. […] Assay protocol. […] For a typical screening experiment, cells are inoculated into 96 well microtiter plates in 100 µL at plating densities ranging from 5000 to 40,000 cells/well depending on the doubling time of individual cell lines. […] After 24 h, two plates of each cell line are fixed in situ with TCA, to represent a measurement of the cell population for each cell line at the time of drug addition (Tz). The experimental drugs are solubilized in dimethyl sulfoxide at 400-fold the desired final maximum test concentration and stored frozen prior to use. At the time of drug addition, an aliquot of frozen concentrate is thawed and diluted to twice the desired final maximum test concentration with complete medium containing 50 µg/mL gentamicin. Additional four, 10-fold or ½ log serial dilutions are made to provide a total of five drug concentrations plus control. […] For adherent cells, the assay is terminated by the addition of cold TCA. […] The supernatant is discarded, and the plates are washed five times with tap water and air dried. […] Using the seven absorbance measurements [time zero, (Tz), control growth, (C), and test growth in the presence of drug at the five concentration levels (Ti)], the percentage growth is calculated at each of the drug concentrations levels. Percentage growth inhibition is calculated as: [(Ti Tz)/(C–Tz)] x 100 for concentrations for which Ti>/=Tz and [(Ti-Tz)/Tz] x 100 for concentrations for which Ti < Tz. Three dose response parameters are calculated for each experimental agent. […] The drug concentration resulting in total growth inhibition (TGI) is calculated from Ti = Tz. […] Values are calculated for each of these three parameters if the level of activity is reached; however, if the effect is not reached or is exceeded, the value for that parameter is expressed as greater or less than the maximum or minimum concentration tested.
# [2] = system: EKVX; experiment: as above; type: cell-based, human; settings: 10 μM
# Procedure: as §1
# [3] = system: HOP-92; experiment: as above; type: cell-based, human; settings: HOP-92, 10 μM
# Procedure: as §1
# [4] = system: NCI-H226; experiment: as above; type: cell-based, human; settings: NCI-H226, 10 μM
# Procedure: as §1
# [5] = system: NCI-H23; experiment: as above; type: cell-based, human; settings: NCI-H23, 10 μM
# Procedure: as §1
# [6] = system: NCI-H322M; experiment: as above; type: cell-based, human; settings: 10 μM
# Procedure: as §1
# [7] = system: NCI-H460; experiment: as above; type: cell-based, human; settings: NCI-H460, 10 μM
# Procedure: as §1
# [8] = system: NCI-H522; experiment: as above; type: cell-based, human; settings: NCI-H522, 10 μM
# Procedure: as §1
# [9] = system: HCC-2998; experiment: NCI 60 panel growth inhibition (SRB), colon cancer; type: cell-based, human; settings: HCC-2998, 10 μM
# Procedure: as §1
# [10] = system: HCT-116; experiment: NCI 60 panel growth inhibition (SRB), colon cancer; type: cell-based, human; settings: HCT-116, 10 μM
# Procedure: as §1
# [11] = system: KM12; experiment: NCI 60 panel growth inhibition (SRB), colon cancer; type: cell-based, human; settings: KM12, 10 μM
# Procedure: as §1
# [12] = system: SW-620; experiment: NCI 60 panel growth inhibition (SRB), colon cancer; type: cell-based, human; settings: SW-620, 10 μM
# Procedure: as §1
# [13] = system: SF-268; experiment: NCI 60 panel growth inhibition (SRB), CNS cancer; type: cell-based, human; settings: SF-268, 10 μM
# Procedure: as §1
# [14] = system: SF-295; experiment: NCI 60 panel growth inhibition (SRB), CNS cancer; type: cell-based, human; settings: SF-295, 10 μM
# Procedure: as §1
# [15] = system: SF-539; experiment: NCI 60 panel growth inhibition (SRB), CNS cancer; type: cell-based, human; settings: SF-539, 10 μM
# Procedure: as §1
# [16] = system: SNB-19; experiment: NCI 60 panel growth inhibition (SRB), CNS cancer; type: cell-based, human; settings: SNB-19, 10 μM
# Procedure: as §1
# [17] = system: SNB-75; experiment: NCI 60 panel growth inhibition (SRB), CNS cancer; type: cell-based, human; settings: SNB-75, 10 μM
# Procedure: as §1
# [18] = system: U251; experiment: NCI 60 panel growth inhibition (SRB), CNS cancer; type: cell-based, human; settings: U251, 10 μM
# Procedure: as §1
# [19] = system: IGROV1; experiment: NCI 60 panel growth inhibition (SRB), ovarian cancer; type: cell-based, human; settings: IGROV1, 10 μM
# Procedure: as §1
# [20] = system: NCI/ADR-RES; experiment: as above; type: cell-based, human; settings: 10 μM
# Procedure: as §1
# [21] = system: OVCAR-3; experiment: as above; type: cell-based, human; settings: OVCAR-3, 10 μM
# Procedure: as §1
# [22] = system: OVCAR-4; experiment: as above; type: cell-based, human; settings: OVCAR-4, 10 μM
# Procedure: as §1
# [23] = system: OVCAR-5; experiment: as above; type: cell-based, human; settings: OVCAR-5, 10 μM
# Procedure: as §1
# [24] = system: OVCAR-8; experiment: as above; type: cell-based, human; settings: OVCAR-8, 10 μM
# Procedure: as §1
# [25] = system: BT-549; experiment: NCI 60 panel growth inhibition (SRB), breast cancer; type: cell-based, human; settings: BT-549, 10 μM
# Procedure: as §1
# [26] = system: HS 578T; experiment: as above; type: cell-based, human; settings: 10 μM
# Procedure: as §1
# [27] = system: MCF7; experiment: as above; type: cell-based, human; settings: MCF7, 10 μM
# Procedure: as §1
# [28] = system: MDA-MB-231/ATCC; experiment: as above; type: cell-based, human; settings: 10 μM
# Procedure: as §1
# [29] = system: MDA-MB-468; experiment: as above; type: cell-based, human; settings: MDA-MB-468, 10 μM
# Procedure: as §1
# [30] = system: NCI 60 cancer cell line panel; experiment: NCI 60 panel growth inhibition (SRB), whole panel; type: cell-based, human; settings: mean over NCI 60 panel, 10 μM
# Procedure: as §1
SMILES,GI% [1],GI% [2],GI% [3],GI% [4],GI% [5],GI% [6],GI% [7],GI% [8],GI% [9],GI% [10],GI% [11],GI% [12],GI% [13],GI% [14],GI% [15],GI% [16],GI% [17],GI% [18],GI% [19],GI% [20],further results
"COc1ccc(-c2nc3ccccc3s2)cc1OCC(=O)NN=C1C(=O)Nc2ccc([N+](=O)[O-])cc21 [Compound 9p, 2-(5-(Benzo[d]thiazol-2-yl)-2-methoxyphenoxy)-N′-(5-nitro-2-oxoindolin-3-ylidene)acetohydrazide]",7.06%,9.22%,99.07%,67.22%,47.90%,6.14%,– (GI% < 5%),42.45%,– (GI% < 5%),47.25%,– (GI% < 5%),– (GI% < 5%),53.94%,89.39%,65.68%,86.59%,120.44%,78.07%,41.60%,19.93%,GI% [21]: – (GI% < 5%); GI% [22]: 13.06%; GI% [23]: – (GI% < 5%); GI% [24]: 38.18%; GI% [25]: 54.51%; GI% [26]: 96.22%; GI% [27]: 17.21%; GI% [28]: 49.20%; GI% [29]: 17.86%; Mean GI% [30]: 30.34%; melting point: 288 to 290 °C
"COc1ccc(-c2nc3ccccc3s2)cc1OCC(=O)NN=C1C(=O)Nc2ccc(Cl)cc21 [Compound 9q, 2-(5-(Benzo[d]thiazol-2-yl)-2-methoxyphenoxy)-N′-(5-chloro-2-oxoindolin-3-ylidene)acetohydrazide]",20.18%,25.37%,52.70%,24.77%,42.70%,– (GI% < 5%),44.39%,21.77%,– (GI% < 5%),72.84%,17.57%,51.82%,27.89%,23.77%,34.10%,63.00%,15.62%,63.50%,16.12%,47.55%,GI% [21]: 31.89%; GI% [22]: 25.24%; GI% [23]: – (GI% < 5%); GI% [24]: 59.73%; GI% [25]: 23.63%; GI% [26]: 74.27%; GI% [27]: 57.82%; GI% [28]: 59.98%; GI% [29]: – (GI% < 5%); Mean GI% [30]: 31.16%; melting point: 260 to 262 °C
"COc1ccc(-c2nc3ccccc3s2)cc1OCC(=O)NN=C1C(=O)Nc2ccc(Br)cc21 [Compound 9r, 2-(5-(Benzo[d]thiazol-2-yl)-2-methoxyphenoxy)-N′-(5-bromo-2-oxoindolin-3-ylidene)acetohydrazide]",7.78%,7.18%,32.33%,10.50%,20.81%,– (GI% < 5%),– (GI% < 5%),8.27%,– (GI% < 5%),30.23%,– (GI% < 5%),7.61%,– (GI% < 5%),– (GI% < 5%),21.62%,48.19%,– (GI% < 5%),30.21%,– (GI% < 5%),27.04%,GI% [21]: – (GI% < 5%); GI% [22]: – (GI% < 5%); GI% [23]: – (GI% < 5%); GI% [24]: 38.56%; GI% [25]: 21.16%; GI% [26]: 46.81%; GI% [27]: 35.42%; GI% [28]: 42.55%; GI% [29]: – (GI% < 5%); Mean GI% [30]: 10.08%; melting point: 271 to 273 °C
